Experimental data published in patent US10087199B2, “Super-resolution imaging compositions and methods using same” (Yale University, priority 2014, dated 2018).

Experiments:
Format in all cases: cell-based
[1] = system: HeLa cells; assay: Cell viability / cell- and photo-toxicity under prolonged imaging; conditions: 5 μM
Method: In the experiments described above, the cells were exposed to Cer-TCO/SiR-Tz for minutes, a relatively short time period. To evaluate whether this Golgi labeling strategy would result in cell- or photo-toxicity over prolonged periods (such as hours), HeLa cells were treated with varying concentrations of either Cer-TCO/SiR-Tz or BODIPY® FL C5-ceramide (BODIPY-Cer) (Marks, et al., 2008, Cell Biol. 130:819-832; Pagano, et al., 1991, J. Cell Biol. 113:1267-1279), a commercially available fluorescent dye that labels the Golgi. […]
Hela cells stably expressing GalNAcT2-GFP were cultured on 35 mm glass bottom dishes subsequently labeled with various concentrations of TCO-Cer (0, 1, 2, and 5 μM) and SiR-Tz (0, 1, and 2 μM) following the protocol described elsewhere herein. […] After equilibration for 30 min, phase contrast images were taken at an interval of 20 min and fluorescence images at an interval of 10 min over 400-750 min. […] The number of physically intact cells was counted at each time point. For each condition at least 110 cells were counted/observed in the initial images (n0 (0 μM TCO-Cer, 0 μM SiR-Tz)=123 cells, n0 (2 μM TCO-Cer, 2 μM SiR-Tz)=113 cells, n0 (1 μM TCO-Cer, 1 μM SiR-Tz)=130 cells, n0 (5 μM TCO-Cer, 1 μM SiR-Tz)=120 cells, n0 (5 μM BODIPY-Cer)=123 cells).

[2] = system: HeLa cells (Golgi label); assay: Photostability in sequential 3D spinning disk confocal imaging; conditions: live cells; spinning disk confocal
Method: The relative photostability of Cer-TCO/SiR-Tz to both BODIPY-Cer and the SiR labeled SNAP-tag Golgi protein Rab6 was compared. The latter is the product of reaction between Rab6-SNAP and a benzyl guanine derivative of SiR (SiR-BG) (Lukinavicius, et al., 2013, Nature Chem. 5:132-139) and thus contains the same near-IR dye as SiR-Tz (FIGS. 5A-5B). HeLa cells were treated with Cer-TCO/SiR-Tz or BODIPY-Cer, while Rab6-SNAP-expressing cells were treated with SiR-BG. The cells were then examined in sequential 3D images using spinning disk confocal microscopy; 3D visualization limited fluorescence fluctuations due to axial sample drift. In each case, 3D “stacks” of 22 optical sections were acquired in series up to 500 times in live or fixed cells (FIGS. 5A-5B). In live cells, even under optimal imaging conditions the BODIPY-Cer fluorescent signal decreased by 50% after fewer than 15 stacks. In striking contrast, the fluorescent signal of cells treated with 2 μM Cer-TCO followed by 2 μM SiR-Tz decreased by only 10% after more than 120 3D stacks had been acquired. Consistent with a lower density of Rab6-SNAP protein in the Golgi, the signal from Rab6-SNAP-SiR decayed at an intermediate rate, decreasing by 50% after about 50 3D stacks. […] After 500 3D stacks the fluorescent signal of Cer-SiR decreased 16% whereas that of Rab6-SNAP-SiR decreased by 84%. […]

[3] = system: HeLa cells that stably expressed GalNAcT2-GFP (Golgi); assay: Two-step Golgi labeling and colocalization with GalNAcT2-GFP by confocal microscopy
Method: To evaluate whether the Golgi could be selectively imaged using Cer-SiR, HeLa cells that stably expressed a protein fusion composed of GFP and N-acetyl-galactosaminyltransferase 2 (GalNAcT2), a transmembrane protein that localizes to the Golgi with high specificity (Storrie, et al., 1998, J. Cell Biol. 143:1505-1521), were used. These cells were treated with 2 μM Cer-TCO (5 min), maintained at 19.5° C. for 60 min to localize the lipid to the Golgi, treated subsequently with 2 μM SiR-Tz (30 min), and visualized using confocal microscopy (FIG. 2A).
The GalNAcT2-GFP and Cer-SiR signals colocalized with a Pearson's coefficient of 0.50±0.02; the corresponding value for the signals from GalNAcT2-GFP and SiR-Tz was 0.08±0.01 (p<0.0001) (FIG. 10), supporting that Cer-TCO effectively localized to the Golgi and reacted efficiently with SiR-Tz.
Stably or transiently transfected HeLa cells were cultured on 35 mm glass bottom dishes (Mattek). To label with Cer-TCO/SiR-Tz, the cells were incubated in PBS containing 1% casein, 0.2% Pluronic F-127 and 2 or 5 μM TCO-Cer for 5 min at 37° C. After washing three times with DMEM ph(−), the cells were incubated for 1 h at 19.5° C. in DMEM ph(−). During this incubation the dish was sealed with parafilm to protect the cells from the used water bath. Subsequently, the cells were washed three times and PBS containing 1% casein and 2 or 1 μM SiR-Tz, respectively, was added to the dish. The dish was sealed with parafilm again and incubated for 30 min at 19.5° C. After washing three times with DMEM ph(−), the cells were observed under a confocal microscope. Fixed samples were prepared similarly with an additional treatment with 4% PFA for 10 min at room temperature after first temperature block. […]
The Pearson correlation between the SiR and the GFP signal within cells was determined using the correlation measurement tool in Volocity. […] For cells stably expressing GalNAcT2-GFP and treated with SiR-Tz and Cer-TCO 13 samples (cells) were analyzed and for cells only treated with SiR-Tz 8 samples were analyzed. […]

[4] = system: HeLa cells that stably expressed GalNAcT2-GFP; assay: FRAP analysis of GalNAcT2-GFP mobility within the Golgi; conditions: recovery over 490 seconds, Cer-TCO alone or 5 μM Cer-TCO and 1 μM SiR-Tz, versus untreated
Description: To further test whether the combination of Cer-TCO and SiRTz affected traffic within the Golgi, HeLa cells that stably expressed the GFP-tagged transmembrane Golgi enzyme GalNAcT2 (Storrie, et al., 1998, J. Cell Biol. 143:1505-1521) were used and its intra-organelle mobility was monitored using fluorescence recovery after photobleaching (FRAP) experiments (FIG. 4A). A small rectangular area of the Golgi (about 2.2 microns wide) was photobleached at 488 nm and the fluorescence recovery was monitored over 490 seconds (FIG. 4B). Both the t1/2 of recovery and mobile fraction were unchanged when the cells were treated with Cer-TCO alone or the combination of 5 μM Cer-TCO and 1 μM SiR-Tz (FIG. 4C). Thus, treatment of cells with Cer-TCO alone or Cer-TCO and SiR-Tz led to no detectable change in the diffusion of GalNAcT2-GFP within the Golgi apparatus.
The stable cell line was cultured on a 35 mm glass bottom dish. In the negative control (no treatment), the medium was replaced by DMEM ph(−). […] The photobleaching of the FRAP experiment was performed with a fluorescence recovery after photobleaching unit of the microscope. […] Quantification was performed with ImageJ. The fluorescence intensity in the unbleached region of the cytosol was subtracted from that in the bleached region of Golgi. […]

CCCCCCCCCCCCC/C=C/[C@@H](O)[C@H](CO)NC(=O)CCCCC1=[N+]2C(=Cc3c(C)cc(C)n3[B-]2(F)F)C=C1 [BODIPY-Cer, BODIPY® FL C5-ceramide, reference compound] was tested, and the “Time after which cell rounding and de-attachment was induced” value [1] was “about 6 hours” and the “Number of 3D stacks after which fluorescent signal decreased by 50%” value [2] was under 15 stacks.
CN(C)c1ccc2c(c1)[Si](C)(C)C1=CC(=[N+](C)C)C=CC1=C2c1cc(C(=O)NCc2ccc(-c3nncnn3)cc2)ccc1C(=O)[O-] [SiR-Tz, 4-((4-(1,2,4,5-tetrazin-3-yl)benzyl)carbamoyl)-2-(7-(dimethylamino)-3-(dimethyliminio)-5,5-dimethyl-3,5-dihydrodibenzo[b,e]silin-10-yl)benzoate] was tested, and the “Pearson's coefficient of colocalization with GalNAcT2-GFP signal” value ([3]; 2 μM Cer-TCO then 2 μM SiR-Tz, or SiR-Tz only, Golgi area, confocal) was 0.08±0.01 and the “Labeling of cells / Golgi region” value ([3]; live HeLa GalNAcT2-GFP cells, Cer-TCO followed by SiR-Tz, or SiR-Tz alone) was “did not label the cells”.
CCCCCCCCCCCCC/C=C/[C@@H](O)[C@H](CO)NC(=O)CCCCCNC(=O)OC1CC/C=C/CCC1 (stereo partly drawn) [Cer-TCO, (E)-cyclooct-4-en-1-yl (6-(((2S,3R,E)-1,3-dihydroxyoctadec-4-en-2-yl)amino)-6-oxohexyl)carbamate] was tested, and the “Mobile fraction (FRAP)” value [4] was “unchanged”.
